In ChEMBL document CHEMBL1201862, “PubChem BioAssay data set” (2004):
Calls of active or inactive are those of the source.

Key:
[1] = target: Steroidogenic factor 1 (Homo sapiens, UniProt Q13285); test: Counterscreen for inverse agonists of the liver receptor homolog-1 (LRH-1; NR5A2): Luminescence-based cell-based high throughput dose response assay to identify inverse agonists of the Steroidogenic Factor 1 Nuclear Receptor (SF1; NR5A1).; type: functional
[2] = StAR promoter reporter inhibition counter-screen, dose response, counter-screen for LRH-1 inverse agonist project, cell-based, luminescence, luciferase reporter (AID 651969); type: functional
[3] = target: Nuclear receptor subfamily 5 group A member 2 (Homo sapiens, UniProt O00482); type: functional, cell-based;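 further: HEK293T cells transfected with LRH-1 and a StAR promoter luciferase reporter; potency for inhibitors that lower LRH-1 driven reporter light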
[4] = target: T1, Endoribonuclease toxin MazF (Escherichia coli K-12, UniProt P0AE70); test: fluorescent RNA oligo signal without MazF, dose response, counter-screen for MazEF activator project, biochemical, fluorescence, single-stranded RNase substrate (AID 588502); type: functional
T1 sequence (P0AE70 whole entry): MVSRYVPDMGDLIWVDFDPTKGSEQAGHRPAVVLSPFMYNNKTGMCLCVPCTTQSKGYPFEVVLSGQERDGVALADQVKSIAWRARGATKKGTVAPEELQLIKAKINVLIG

[5] = target: Large T antigen (Simian virus 40, UniProt P03070); type: functional, Betapolyomavirus macacae;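 further: Confirmatory-stage PubChem screen for compounds that inhibit SV40 T antigen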
[6] = target: T1, Endoribonuclease toxin MazF; test: MazF toxin RNase activators, dose response, biochemical, fluorescence, single-stranded RNA substrate, uHTS hits (AID 588481); type: functional
[7] = target: T2, Corticotropin-releasing factor receptor 2/Corticotropin-releasing factor-binding protein (Homo sapiens, UniProt P24387+Q13324); test: activators of CRF receptor 2 with binding protein – uHTS hits, confirmation (AID 602473); type: functional; details: read-out: EC50_Mean
T2 sequence (Q13324 whole entry): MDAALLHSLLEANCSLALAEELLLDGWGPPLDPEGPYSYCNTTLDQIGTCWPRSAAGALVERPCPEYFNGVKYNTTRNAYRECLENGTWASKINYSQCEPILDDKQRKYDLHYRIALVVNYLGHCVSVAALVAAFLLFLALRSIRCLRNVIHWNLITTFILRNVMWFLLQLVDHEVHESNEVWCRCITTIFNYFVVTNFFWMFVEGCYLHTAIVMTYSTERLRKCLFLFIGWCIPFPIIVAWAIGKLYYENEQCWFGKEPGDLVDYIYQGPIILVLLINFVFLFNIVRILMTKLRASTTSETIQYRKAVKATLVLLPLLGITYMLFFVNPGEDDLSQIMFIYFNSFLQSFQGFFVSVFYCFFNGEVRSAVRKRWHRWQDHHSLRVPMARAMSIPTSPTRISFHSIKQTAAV
T2 sequence (P24387 whole entry): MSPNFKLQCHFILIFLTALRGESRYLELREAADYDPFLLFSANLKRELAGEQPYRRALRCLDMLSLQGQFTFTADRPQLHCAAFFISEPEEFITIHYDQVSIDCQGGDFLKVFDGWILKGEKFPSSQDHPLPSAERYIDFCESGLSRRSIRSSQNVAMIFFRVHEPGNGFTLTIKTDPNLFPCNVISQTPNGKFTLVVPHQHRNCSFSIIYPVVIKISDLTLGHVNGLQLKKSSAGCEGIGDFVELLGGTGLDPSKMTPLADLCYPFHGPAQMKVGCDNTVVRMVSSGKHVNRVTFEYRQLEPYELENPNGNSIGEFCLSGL

[8] = LGR2 antagonists, dose response, cell-based, HEK293, CRE-luciferase reporter, cherry pick, set 2 (AID 743343); type: functional;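 further: transfected cells were stimulated with diluted bursicon conditioned medium after compound addition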
[9] = A549 cell cytotoxicity, dose response, cytotoxicity control, plate reader, cherry-pick, antagonist series (AID 743412); type: functional, cell-based
[10] = HEK293 cell cytotoxicity, dose response, cytotoxicity control, plate reader, cherry-picked samples (AID 743446); type: functional, cell-based
[11] = MC4R antagonists, dose response, counter-screen for LGR2 antagonist project, cell-based, plate reader, cherry pick (AID 743444); type: functional;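 further: transfected HEK 293 cells stimulated with alpha-MSH peptide; potency of inhibitors of the alpha-MSH evoked signal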
[12] = system: HEK293; test: inhibitors of LMP1-driven NF-kB reporter, dose response, cell-based, HEK293, luciferase, cherry-pick (AID 588343); type: functional; details: Homo sapiens
[13] = NIH-3T3 fibroblast cytotoxicity, dose response, cytotoxicity control, cell-based, fluorescence, Alamar Blue, secondary assay (AID 2327); type: functional;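 further: NIH-3T3 mouse fibroblasts cultured with fluconazole at 8 µg/mL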
[14] = target: Genome polyprotein (dengue virus type 2, UniProt P29990); test: Dengue-2 NS5 methyltransferase inhibitors, primary screen, biochemical, confirmation dose response (AID 588689); type: functional
[15] = target: FAD-linked sulfhydryl oxidase ALR (Homo sapiens, UniProt P55789); test: inhibitors of human ALR sulfhydryl oxidase, dose response, biochemical, H2O2 detection, luminescence, cherry-pick (AID 493248)
[16] = target: T3, Protein RecA (Mycobacterium tuberculosis, UniProt P9WHJ3); test: Fluorescence Cell-Free Homogeneous Dose Retest to Identify Inhibitors of RecA-Intein Splicing Activity. [Related pubchem assays (depositor defined):AID2097, AID2223, AID489010, AID492950]; type: functional
T3 sequence (P9WHJ3 whole entry): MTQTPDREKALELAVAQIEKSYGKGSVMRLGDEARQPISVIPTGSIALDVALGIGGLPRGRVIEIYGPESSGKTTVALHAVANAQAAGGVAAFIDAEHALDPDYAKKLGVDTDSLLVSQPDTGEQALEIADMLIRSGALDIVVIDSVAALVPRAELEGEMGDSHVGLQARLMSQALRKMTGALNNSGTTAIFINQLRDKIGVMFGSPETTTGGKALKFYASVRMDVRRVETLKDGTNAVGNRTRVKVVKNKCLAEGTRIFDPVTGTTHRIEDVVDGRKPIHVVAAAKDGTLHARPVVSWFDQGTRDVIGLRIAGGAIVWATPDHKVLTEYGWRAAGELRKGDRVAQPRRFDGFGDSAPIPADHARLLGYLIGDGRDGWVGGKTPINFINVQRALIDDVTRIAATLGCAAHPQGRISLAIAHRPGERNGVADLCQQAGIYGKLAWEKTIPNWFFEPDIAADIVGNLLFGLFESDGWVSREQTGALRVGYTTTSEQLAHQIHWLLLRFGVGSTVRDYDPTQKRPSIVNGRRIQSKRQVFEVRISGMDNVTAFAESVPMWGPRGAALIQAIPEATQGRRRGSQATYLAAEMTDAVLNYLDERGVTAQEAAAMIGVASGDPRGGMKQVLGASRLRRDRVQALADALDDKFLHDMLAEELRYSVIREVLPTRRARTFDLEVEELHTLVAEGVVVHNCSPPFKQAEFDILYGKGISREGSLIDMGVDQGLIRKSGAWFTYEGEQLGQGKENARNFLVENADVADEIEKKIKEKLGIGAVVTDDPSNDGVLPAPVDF

[17] = target: T4, Replicative DNA helicase DnaB (Mycobacterium tuberculosis, UniProt P9WMR3); test: DnaB intein splicing inhibitors, dose response, biochemical, cell-free fluorescence (AID 449749); type: functional
T4 sequence (P9WMR3 whole entry): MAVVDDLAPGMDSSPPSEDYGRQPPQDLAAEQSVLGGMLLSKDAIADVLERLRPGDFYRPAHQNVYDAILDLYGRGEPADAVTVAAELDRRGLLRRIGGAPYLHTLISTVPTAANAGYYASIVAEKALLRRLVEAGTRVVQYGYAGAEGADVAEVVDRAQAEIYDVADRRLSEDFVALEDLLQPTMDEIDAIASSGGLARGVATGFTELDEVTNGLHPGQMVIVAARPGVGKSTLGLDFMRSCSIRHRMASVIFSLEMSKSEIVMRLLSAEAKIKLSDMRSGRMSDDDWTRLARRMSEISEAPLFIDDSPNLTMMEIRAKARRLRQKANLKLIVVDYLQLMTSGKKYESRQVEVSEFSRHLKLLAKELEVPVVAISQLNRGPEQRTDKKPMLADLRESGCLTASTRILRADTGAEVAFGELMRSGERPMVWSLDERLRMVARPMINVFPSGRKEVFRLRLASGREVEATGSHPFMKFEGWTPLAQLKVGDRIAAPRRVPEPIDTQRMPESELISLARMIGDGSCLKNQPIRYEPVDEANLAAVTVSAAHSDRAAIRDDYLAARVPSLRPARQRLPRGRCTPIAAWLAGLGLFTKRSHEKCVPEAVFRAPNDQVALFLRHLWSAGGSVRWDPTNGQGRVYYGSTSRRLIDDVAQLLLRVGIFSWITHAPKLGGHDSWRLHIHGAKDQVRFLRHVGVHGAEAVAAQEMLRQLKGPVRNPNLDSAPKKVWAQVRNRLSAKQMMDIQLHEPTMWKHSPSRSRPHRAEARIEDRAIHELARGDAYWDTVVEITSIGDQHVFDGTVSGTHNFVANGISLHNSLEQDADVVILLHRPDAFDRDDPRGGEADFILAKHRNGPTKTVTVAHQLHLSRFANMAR

[18] = target: Peroxisome proliferator-activated receptor gamma/Nuclear receptor coactivator 2 (Homo sapiens, UniProt P37231); type: functional;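 further: agonist potency for raising coactivator recruitment to the receptor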
[19] = target: Peroxisome proliferator-activated receptor gamma/Nuclear receptor coactivator 3 (Homo sapiens, UniProt P37231); type: functional;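 further: agonist potency for raising coactivator recruitment to the receptor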
[20] = target: Peroxisome proliferator-activated receptor gamma/Nuclear receptor coactivator 1 (Homo sapiens, UniProt P37231); type: functional;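 further: agonist potency as compounds enhance coactivator SRC-1 recruitment to PPARgamma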
Peroxisome proliferator-activated receptor gamma/Nuclear receptor coactivator 1, sequence (P37231 whole entry): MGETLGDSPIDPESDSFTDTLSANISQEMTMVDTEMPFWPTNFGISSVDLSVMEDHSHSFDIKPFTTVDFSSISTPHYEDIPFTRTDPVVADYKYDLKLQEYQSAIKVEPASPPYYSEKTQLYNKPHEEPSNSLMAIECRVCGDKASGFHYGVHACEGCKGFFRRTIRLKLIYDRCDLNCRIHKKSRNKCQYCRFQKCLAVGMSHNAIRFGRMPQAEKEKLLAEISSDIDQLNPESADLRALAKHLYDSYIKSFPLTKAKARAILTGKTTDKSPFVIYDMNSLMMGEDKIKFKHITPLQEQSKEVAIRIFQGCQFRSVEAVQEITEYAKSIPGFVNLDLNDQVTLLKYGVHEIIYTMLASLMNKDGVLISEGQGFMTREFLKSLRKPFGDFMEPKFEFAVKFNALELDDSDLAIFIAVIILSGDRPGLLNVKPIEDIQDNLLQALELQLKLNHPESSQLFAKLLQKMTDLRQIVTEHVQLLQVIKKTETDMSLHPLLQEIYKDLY
Peroxisome proliferator-activated receptor gamma/Nuclear receptor coactivator 1, sequence (Q15788 whole entry, further chain): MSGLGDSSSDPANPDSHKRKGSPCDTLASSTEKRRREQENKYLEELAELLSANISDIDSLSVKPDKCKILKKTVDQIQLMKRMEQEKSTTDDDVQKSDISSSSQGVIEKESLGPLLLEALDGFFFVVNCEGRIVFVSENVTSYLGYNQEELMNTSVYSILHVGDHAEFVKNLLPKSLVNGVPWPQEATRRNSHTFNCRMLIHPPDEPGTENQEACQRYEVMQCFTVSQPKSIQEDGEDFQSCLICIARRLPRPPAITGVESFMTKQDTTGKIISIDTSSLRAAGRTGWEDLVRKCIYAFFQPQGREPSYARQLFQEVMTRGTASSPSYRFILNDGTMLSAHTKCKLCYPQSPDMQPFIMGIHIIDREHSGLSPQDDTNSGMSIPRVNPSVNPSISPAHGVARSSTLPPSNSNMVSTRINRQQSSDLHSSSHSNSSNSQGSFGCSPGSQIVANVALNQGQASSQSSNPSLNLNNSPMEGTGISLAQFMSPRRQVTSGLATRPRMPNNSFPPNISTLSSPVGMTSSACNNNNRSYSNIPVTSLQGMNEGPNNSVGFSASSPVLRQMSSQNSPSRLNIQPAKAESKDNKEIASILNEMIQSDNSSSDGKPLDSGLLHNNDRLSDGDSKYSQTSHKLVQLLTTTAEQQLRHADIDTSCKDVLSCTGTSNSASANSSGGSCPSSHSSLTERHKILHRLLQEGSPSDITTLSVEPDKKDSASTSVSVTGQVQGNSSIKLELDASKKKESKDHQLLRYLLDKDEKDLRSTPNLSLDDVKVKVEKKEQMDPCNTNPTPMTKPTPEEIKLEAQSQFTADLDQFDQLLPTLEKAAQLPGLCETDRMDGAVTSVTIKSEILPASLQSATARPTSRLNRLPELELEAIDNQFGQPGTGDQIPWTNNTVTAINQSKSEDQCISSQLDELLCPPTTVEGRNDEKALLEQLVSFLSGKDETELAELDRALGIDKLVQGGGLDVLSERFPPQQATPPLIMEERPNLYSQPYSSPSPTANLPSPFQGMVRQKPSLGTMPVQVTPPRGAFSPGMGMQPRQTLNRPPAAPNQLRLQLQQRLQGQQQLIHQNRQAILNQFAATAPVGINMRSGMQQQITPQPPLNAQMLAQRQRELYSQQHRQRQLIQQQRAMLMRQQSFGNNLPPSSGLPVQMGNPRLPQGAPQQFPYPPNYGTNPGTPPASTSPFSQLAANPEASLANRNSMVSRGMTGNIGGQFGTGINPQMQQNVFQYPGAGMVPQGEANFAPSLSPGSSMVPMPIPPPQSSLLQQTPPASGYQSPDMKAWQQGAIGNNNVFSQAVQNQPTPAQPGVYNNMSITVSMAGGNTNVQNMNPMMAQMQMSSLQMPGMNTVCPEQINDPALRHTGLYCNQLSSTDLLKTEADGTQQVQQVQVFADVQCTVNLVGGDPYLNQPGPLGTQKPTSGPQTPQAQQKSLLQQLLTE

Steroidogenic factor 1, sequence (Q13285 whole entry): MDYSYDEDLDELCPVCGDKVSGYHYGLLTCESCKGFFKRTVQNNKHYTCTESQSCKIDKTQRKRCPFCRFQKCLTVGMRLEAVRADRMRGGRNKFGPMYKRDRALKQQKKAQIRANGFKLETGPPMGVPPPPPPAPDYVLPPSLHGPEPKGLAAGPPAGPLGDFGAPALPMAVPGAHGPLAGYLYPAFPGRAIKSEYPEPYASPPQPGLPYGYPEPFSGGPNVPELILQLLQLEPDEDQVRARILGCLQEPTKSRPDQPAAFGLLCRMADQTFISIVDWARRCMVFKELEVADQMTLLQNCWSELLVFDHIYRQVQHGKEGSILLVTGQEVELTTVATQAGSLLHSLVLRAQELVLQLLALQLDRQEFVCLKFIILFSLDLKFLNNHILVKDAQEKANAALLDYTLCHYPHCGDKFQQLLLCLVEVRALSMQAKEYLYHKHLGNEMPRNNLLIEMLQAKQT
Nuclear receptor subfamily 5 group A member 2, sequence (O00482 whole entry): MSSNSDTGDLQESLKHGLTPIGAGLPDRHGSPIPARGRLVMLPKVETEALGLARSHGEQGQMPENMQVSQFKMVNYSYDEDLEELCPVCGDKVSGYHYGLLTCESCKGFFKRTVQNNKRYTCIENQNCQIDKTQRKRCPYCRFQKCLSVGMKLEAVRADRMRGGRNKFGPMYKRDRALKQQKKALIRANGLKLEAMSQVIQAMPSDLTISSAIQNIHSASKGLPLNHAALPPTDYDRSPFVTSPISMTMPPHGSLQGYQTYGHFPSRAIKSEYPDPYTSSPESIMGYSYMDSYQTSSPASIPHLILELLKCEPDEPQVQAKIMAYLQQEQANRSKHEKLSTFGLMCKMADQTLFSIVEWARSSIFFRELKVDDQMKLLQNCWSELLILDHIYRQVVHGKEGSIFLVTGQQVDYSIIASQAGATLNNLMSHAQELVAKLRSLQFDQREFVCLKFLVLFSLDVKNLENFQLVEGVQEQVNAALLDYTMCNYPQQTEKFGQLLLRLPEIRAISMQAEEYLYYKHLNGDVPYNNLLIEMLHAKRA
Genome polyprotein, sequence (P29990 2492-3391 limits assumed): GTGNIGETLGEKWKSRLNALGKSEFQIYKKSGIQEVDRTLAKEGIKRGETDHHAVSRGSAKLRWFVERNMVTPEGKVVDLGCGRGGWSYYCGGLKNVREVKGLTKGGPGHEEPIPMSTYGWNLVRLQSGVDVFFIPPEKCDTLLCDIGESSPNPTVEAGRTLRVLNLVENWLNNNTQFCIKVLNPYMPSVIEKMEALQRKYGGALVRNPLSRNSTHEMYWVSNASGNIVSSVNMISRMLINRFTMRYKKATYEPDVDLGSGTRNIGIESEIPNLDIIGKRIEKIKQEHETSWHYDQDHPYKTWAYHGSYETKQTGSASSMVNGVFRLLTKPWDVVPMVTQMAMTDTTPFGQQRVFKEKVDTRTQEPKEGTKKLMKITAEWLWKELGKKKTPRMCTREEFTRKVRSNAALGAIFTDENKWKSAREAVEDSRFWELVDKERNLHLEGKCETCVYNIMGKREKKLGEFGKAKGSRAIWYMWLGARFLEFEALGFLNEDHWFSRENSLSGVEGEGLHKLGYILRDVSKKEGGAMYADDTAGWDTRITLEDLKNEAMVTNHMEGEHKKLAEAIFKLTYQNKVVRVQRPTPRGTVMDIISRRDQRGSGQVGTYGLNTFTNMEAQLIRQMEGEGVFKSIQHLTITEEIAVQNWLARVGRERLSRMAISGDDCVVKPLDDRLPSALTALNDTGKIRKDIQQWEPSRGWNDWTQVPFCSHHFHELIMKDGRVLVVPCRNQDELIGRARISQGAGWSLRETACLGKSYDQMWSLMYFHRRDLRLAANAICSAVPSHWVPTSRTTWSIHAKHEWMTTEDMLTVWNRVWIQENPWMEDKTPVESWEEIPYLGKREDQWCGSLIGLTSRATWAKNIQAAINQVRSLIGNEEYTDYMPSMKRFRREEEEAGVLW
Large T antigen, sequence (P03070 whole entry): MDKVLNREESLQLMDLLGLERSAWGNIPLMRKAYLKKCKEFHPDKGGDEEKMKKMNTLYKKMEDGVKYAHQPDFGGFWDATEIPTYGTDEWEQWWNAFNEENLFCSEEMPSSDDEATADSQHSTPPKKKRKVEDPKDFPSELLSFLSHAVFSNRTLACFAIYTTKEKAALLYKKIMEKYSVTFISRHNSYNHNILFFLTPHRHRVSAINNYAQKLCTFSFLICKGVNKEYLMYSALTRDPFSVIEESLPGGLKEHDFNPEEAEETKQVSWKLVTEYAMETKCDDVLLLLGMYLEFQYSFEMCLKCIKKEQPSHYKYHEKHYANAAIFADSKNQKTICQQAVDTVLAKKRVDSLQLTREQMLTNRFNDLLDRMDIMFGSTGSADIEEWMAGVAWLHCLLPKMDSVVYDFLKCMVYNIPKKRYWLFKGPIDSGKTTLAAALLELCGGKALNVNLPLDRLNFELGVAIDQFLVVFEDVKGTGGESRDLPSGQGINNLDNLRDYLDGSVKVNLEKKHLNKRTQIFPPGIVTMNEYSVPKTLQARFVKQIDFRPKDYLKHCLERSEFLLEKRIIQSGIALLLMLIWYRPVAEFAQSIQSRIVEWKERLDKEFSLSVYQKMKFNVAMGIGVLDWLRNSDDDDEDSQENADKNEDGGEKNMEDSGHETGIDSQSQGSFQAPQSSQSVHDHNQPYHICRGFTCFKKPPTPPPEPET
FAD-linked sulfhydryl oxidase ALR, sequence (P55789 whole entry): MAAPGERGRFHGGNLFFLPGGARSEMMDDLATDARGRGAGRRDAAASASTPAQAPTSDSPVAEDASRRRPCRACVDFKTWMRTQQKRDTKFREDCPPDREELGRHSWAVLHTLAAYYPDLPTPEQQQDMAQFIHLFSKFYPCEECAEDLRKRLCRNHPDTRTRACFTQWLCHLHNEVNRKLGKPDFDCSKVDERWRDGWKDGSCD

Compound: Cc1ccc(C)c(NC(=O)CSc2nc(O)c3c[nH]nc3n2)c1
- IC50 [1]: 6.65 µM (active)
- IC50 [2]: 35.9 µM (inactive)
- IC50 [3]: 29 µM (inactive)

Compound: CCn1c(/C=C/c2ccc(O)c(O)c2)nc2ccccc2c1=O
- EC50 [4]: 88.4 µM (inactive)
- IC50 [5]: 35.6 µM (active)
- EC50 [6]: > 99 µM (inactive)

Compound: CCCCC(=O)Nc1ccc(C(=O)Nc2ccc(OC)cc2[N+](=O)[O-])cc1
- EC50 [4]: > 99 µM (inactive)
- EC50 [7]: 7.74 µM (active)
- EC50 [6]: > 99 µM (inactive)

Compound: Cc1csc(NC(=O)c2ccc(N3CCCC3=O)cc2)n1
- AC50 [8]: 2.05 µM (active)
- AC50 [9]: > 52 µM (inactive)
- AC50 [10]: > 52 µM (inactive)
- AC50 [11]: 1.93 µM (active)
- AC50 [12]: 1.52 µM (active)

Compound: CC(=O)Nc1ccc(NC(=O)CSc2ccc(-c3ccc(-n4ccnc4)cc3)nn2)cc1
- IC50 [1]: 35.9 µM (inactive)
- IC50 [2]: 35.9 µM (inactive)
- IC50 [3]: 35.9 µM (inactive)

Compound: O=C(NNc1ccc(O)cc1)c1ccc(Br)cc1
- EC50 [13]: 28.9 µM (active)
- IC50 [14]: > 100 µM (active)
- AC50 [15]: 0.096 µM (active)

Compound: CC1=NN(Cc2ccccc2)C(=O)C1C(c1ccc(Cl)cc1)C(C#N)C#N (configuration not stated)
- EC50 [16]: 2.5 µM (active)
- IC50 [14]: 55.2 µM (active)
- AC50 [17]: 5.34 µM (active)

Compound: CC(=O)Nc1ccc(NC(=O)CSc2nnc(NC(=O)C3CC3)s2)cc1
- IC50 [1]: 8.29 µM (active)
- IC50 [2]: 35.9 µM (inactive)
- IC50 [3]: 9.26 µM (active)

Compound: O=C(CSc1ncnc2c1nnn2Cc1ccccc1F)N1CCN(c2ccccc2)CC1
- EC50 [18]: > 79.4 µM (not active)
- EC50 [16]: 5.75 µM (active)
- EC50 [19]: > 79.4 µM (not active)
- AC50 [17]: 3.65 µM (active)
- EC50 [20]: > 79.4 µM (not active)

Compound: O=C(O)[C@H](Cc1ccccc1)N1C(=O)c2c(Cl)c(Cl)c(Cl)c(Cl)c2C1=O
- IC50 [14]: 23.9 µM (active)
